Test in all cases: relative viability (nuclei count vs DMSO), 5 days (fraction); higher = more cells survive
Compound in the test “Mirin + Bortezomib”: N=C1NC(=O)/C(=C/c2ccc(O)cc2)S1 [Mirin] + CC(C)C[C@H](NC(=O)[C@H](Cc1ccccc1)NC(=O)c1cnccn1)B(O)O [Bortezomib] (partner 0.002 µM)
The procedure, abridged: (§1)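 Each reported value is a median over duplicate plates. It expresses relative viability: treated-well nuclei count divided by vehicle-well nuclei count. Lung cancer cell lines in 1536-well plates were dosed by pin tool a day after seeding, alone with one drug or with a fixed anchor-drug dose plus five library-drug doses (not always all listed) in √10 steps, and nuclei were counted after 5 days.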

Compound in test [1]: CCC1=CN=CN=C1N2CCN(CC2)CC3=NC4=C(N3)C=C(C=C4)C(F)(F)F + COc1cccc2cc(-c3nc([C@H]4CC[C@H](C(=O)O)CC4)n4ncnc(N)c34)[nH]c12 [OSI-027] (partner 0.5 µM)
The procedure, abridged: as §1

Compound in test [2]: CCC1=CN=CN=C1N2CCN(CC2)CC3=NC4=C(N3)C=C(C=C4)C(F)(F)F + N=C(N)NC(=N)NCCc1ccccc1 [Phenformin] (partner 250 µM)
The gist of the method:
as §1

Compound in test [3]: CCn1c(-c2nonc2N)nc2cnc(Oc3cccc(NC(=O)c4ccc(OCCN5CCOCC5)cc4)c3)cc21 + CC(C)C[C@H](NC(=O)[C@H](Cc1ccccc1)NC(=O)c1cnccn1)B(O)O [Bortezomib] (partner 0.002 µM)
The procedure, abridged: as §1

For the cell line PC-3 [JPC-3], the relative viability in the test with Mirin + Bortezomib (first compound 0.25 µM) stood at 0.768; with Mirin + Bortezomib (first compound 0.7906 µM) it was 0.889; with Mirin + Bortezomib (first compound 2.5 µM), 0.841; with Mirin + Bortezomib (first compound 7.906 µM), 0.941; with Mirin + Bortezomib (first compound 25 µM) it was 0.967; in test [1] (first compound 0.04 µM) it was 0.65. In addition, the relative viability in test [1] (first compound 0.1265 µM) is 0.67; in test [1] (first compound 0.4 µM), 0.705; in test [1] (first compound 1.265 µM), 0.731; in test [1] (first compound 4 µM), 0.728; in test [2] (first compound 0.04 µM) it was 0.456; in test [2] (first compound 0.1265 µM), 0.456. Also, the relative viability stood at 0.457 in test [2] (first compound 0.4 µM); 0.505 in test [2] (first compound 1.265 µM); 0.479 in test [2] (first compound 4 µM); 0.958 in test [3] (first compound 0.04 µM); 0.867 in test [3] (first compound 0.1265 µM); 0.727 in test [3] (first compound 0.4 µM). Further, the relative viability in test [3] (first compound 1.265 µM) turned out to be 0.772; in test [3] (first compound 4 µM) it was 0.63.

For the cell line PC-14, the relative viability worked out at 0.895 in the test with Mirin + Bortezomib (first compound 0.25 µM); 0.852 in the test with Mirin + Bortezomib (first compound 0.7906 µM); 0.894 with Mirin + Bortezomib (first compound 2.5 µM); 1.06 with Mirin + Bortezomib (first compound 7.906 µM); 1.04 with Mirin + Bortezomib (first compound 25 µM); 0.871 in test [1] (first compound 0.04 µM). In addition, the relative viability in test [1] (first compound 0.1265 µM) was 0.814; in test [1] (first compound 0.4 µM), 0.809; in test [1] (first compound 1.265 µM), 0.766; in test [1] (first compound 4 µM) it was 0.82; in test [2] (first compound 0.04 µM), 0.463; in test [2] (first compound 0.1265 µM), 0.472. The relative viability was found to be 0.561 in test [2] (first compound 0.4 µM); 0.669 in test [2] (first compound 1.265 µM); 0.567 in test [2] (first compound 4 µM); 1.04 in test [3] (first compound 0.04 µM); 0.857 in test [3] (first compound 0.1265 µM); 0.905 in test [3] (first compound 0.4 µM). Also, the relative viability in test [3] (first compound 1.265 µM) stood at 0.776; in test [3] (first compound 4 µM), 0.729.

Turning to RERF-LC-KJ, the relative viability with Mirin + Bortezomib (first compound 0.25 µM) came to 1.22; in the test with Mirin + Bortezomib (first compound 0.7906 µM) it was 1.25; with Mirin + Bortezomib (first compound 2.5 µM), 1.07; with Mirin + Bortezomib (first compound 7.906 µM), 1.18; with Mirin + Bortezomib (first compound 25 µM) it was 1.2; in test [1] (first compound 0.04 µM), 0.517. The relative viability in test [1] (first compound 0.1265 µM) was determined as 0.584; in test [1] (first compound 0.4 µM) it was 0.602; in test [1] (first compound 1.265 µM), 0.517; in test [1] (first compound 4 µM), 0.601; in test [2] (first compound 0.04 µM), 0.407; in test [2] (first compound 0.1265 µM), 0.382. For the same cell line, the relative viability in test [2] (first compound 0.4 µM) turned out to be 0.467; in test [2] (first compound 1.265 µM), 0.366; in test [2] (first compound 4 µM), 0.41; in test [3] (first compound 0.04 µM), 1.32; in test [3] (first compound 0.1265 µM), 1.31; in test [3] (first compound 0.4 µM), 1.01. Besides, the results for the relative viability in test [3] (first compound 1.265 µM) and in test [3] (first compound 4 µM) were 0.731 and 0.754, respectively.

Regarding SK-LU-1, the relative viability with Mirin + Bortezomib (first compound 0.25 µM) was 1.22; with Mirin + Bortezomib (first compound 0.7906 µM), 1.22; with Mirin + Bortezomib (first compound 2.5 µM), 1.19; with Mirin + Bortezomib (first compound 25 µM), 1.15; in test [1] (first compound 0.04 µM) it was 0.386; in test [1] (first compound 0.1265 µM), 0.315. Also, the relative viability in test [1] (first compound 0.4 µM) is 0.337; in test [1] (first compound 1.265 µM), 0.3; in test [1] (first compound 4 µM), 0.357; in test [2] (first compound 0.04 µM) it was 0.523; in test [2] (first compound 0.1265 µM), 0.534; in test [2] (first compound 0.4 µM), 0.509. The relative viability was found to be 0.385 in test [2] (first compound 1.265 µM); 0.579 in test [2] (first compound 4 µM); 1.5 in test [3] (first compound 0.04 µM); 0.921 in test [3] (first compound 0.1265 µM); 0.608 in test [3] (first compound 0.4 µM); 0.504 in test [3] (first compound 4 µM).

For the cell line SW 1573, the relative viability with Mirin + Bortezomib (first compound 0.25 µM) came to 1.01; in the test with Mirin + Bortezomib (first compound 0.7906 µM), 1.06; with Mirin + Bortezomib (first compound 2.5 µM) it was 1.14; with Mirin + Bortezomib (first compound 7.906 µM), 0.95; with Mirin + Bortezomib (first compound 25 µM) it was 0.855; in test [1] (first compound 0.04 µM), 0.529. In addition, the relative viability was 0.582 in test [1] (first compound 0.1265 µM); 0.53 in test [1] (first compound 0.4 µM); 0.49 in test [1] (first compound 1.265 µM); 0.499 in test [1] (first compound 4 µM); 0.405 in test [2] (first compound 0.04 µM); 0.415 in test [2] (first compound 0.1265 µM). Moreover, the relative viability was 0.3 in test [2] (first compound 0.4 µM); 0.406 in test [2] (first compound 1.265 µM); 0.357 in test [2] (first compound 4 µM); 0.984 in test [3] (first compound 0.04 µM); 1.04 in test [3] (first compound 0.1265 µM); 0.871 in test [3] (first compound 0.4 µM). Besides, the relative viability in test [3] (first compound 1.265 µM) turned out to be 0.575; in test [3] (first compound 4 µM), 0.41.

These data come from the supplement of paper PMC10307832.
